# Data taken from PubChem BioAssay AID272 (DTP/NCI, 2004).
# Values joined by “and” are separate entries in the source; they are usually repeats but may differ in a detail not shown here. Equal values may be shown once. Inconclusive results are not listed.
# Test system: Lewis lung carcinoma i.m., BDF1 mice, T/C %
# Experiment: NCI In Vivo Anticancer Drug Screen. Data for tumor model Lewis Lung Carcinoma (intramuscular) in B6D2F1 (BDF1) mice
# Procedure, shortened: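 Compound given to mice with transplantable tumours; survival or tumour size compared against the vehicle control group, reported as T divided by C.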
# [1] = endpoint: mean tumor weight (est.), dose: 5.0 mg/kg/injection, schedule: Q01DX011 (ip), vehicle: saline, higher = larger tumour
# [2] = endpoint: median survival time, dose: 6.25 mg/kg/injection, schedule: Q01DX011 (ip), vehicle: saline, higher = longer survival
# [3] = endpoint: median survival time, dose: 12.5 mg/kg/injection, schedule: Q01DX011 (ip), vehicle: saline, higher = longer survival
smiles,measurement,setting,value
C(=C\c1ccccc1)/C[P+](c1ccccc1)(c1ccccc1)c1ccccc1,T/C,"endpoint: mean tumor weight (est.), dose: 0.6 mg/kg/injection, schedule: Q01DX011 (ip), vehicle: saline, higher = larger tumour",101 % of control
same,T/C,"endpoint: mean tumor weight (est.), dose: 1.25 mg/kg/injection, schedule: Q01DX011 (ip), vehicle: saline, higher = larger tumour",100 % of control
same,T/C,"endpoint: mean tumor weight (est.), dose: 2.5 mg/kg/injection, schedule: Q01DX011 (ip), vehicle: saline, higher = larger tumour",105 % of control
same,T/C,[1],93 % of control
same,T/C,"endpoint: median survival time, dose: 0.6 mg/kg/injection, schedule: Q01DX011 (ip), vehicle: saline, higher = longer survival",98 % of control
same,T/C,"endpoint: median survival time, dose: 1.25 mg/kg/injection, schedule: Q01DX011 (ip), vehicle: saline, higher = longer survival",107 % of control
same,T/C,"endpoint: median survival time, dose: 2.5 mg/kg/injection, schedule: Q01DX011 (ip), vehicle: saline, higher = longer survival",98 % of control
same,T/C,"endpoint: median survival time, dose: 5.0 mg/kg/injection, schedule: Q01DX011 (ip), vehicle: saline, higher = longer survival",100 % of control
CO[C@H](C(=O)[C@@H](O)[C@@H](C)O)[C@@H]1Cc2cc3cc(OC4CC(OC5CC(O)C(O)C(C)O5)C(O)C(C)O4)c(C)c(O)c3c(O)c2C(=O)[C@H]1OC1CC(OC2CC(OC3CC(C)(O)C(O)C(C)O3)C(O)C(C)O2)C(O)C(C)O1 (some centres undefined),T/C,"endpoint: mean tumor weight, dose: 0.06 mg/kg/injection, schedule: Q01DX011 (ip), vehicle: water, higher = larger tumour",89 % of control
same,T/C,"endpoint: mean tumor weight, dose: 0.12 mg/kg/injection, schedule: Q01DX011 (ip), vehicle: water, higher = larger tumour",107 % of control
same,T/C,"endpoint: mean tumor weight, dose: 0.25 mg/kg/injection, schedule: Q01DX011 (ip), vehicle: water, higher = larger tumour",111 % of control
same,T/C,"endpoint: mean tumor weight, dose: 0.5 mg/kg/injection, schedule: Q01DX011 (ip), vehicle: water, higher = larger tumour",66 % of control
same,T/C,"endpoint: median survival time, dose: 0.12 mg/kg/injection, schedule: Q01DX011 (ip), vehicle: water, higher = longer survival",108 % of control and 114 % of control
same,T/C,"endpoint: median survival time, dose: 0.13 mg/kg/injection, schedule: Q01DX009 (ip), vehicle: water, higher = longer survival",94 % of control and 104 % of control
same,T/C,"endpoint: median survival time, dose: 0.25 mg/kg/injection, schedule: Q01DX009 (ip), vehicle: water, higher = longer survival",97 % of control and 101 % of control
same,T/C,"endpoint: median survival time, dose: 0.25 mg/kg/injection, schedule: Q01DX011 (ip), vehicle: water, higher = longer survival",92 % of control and 109 % of control
same,T/C,"endpoint: median survival time, dose: 0.5 mg/kg/injection, schedule: Q01DX009 (ip), vehicle: water, higher = longer survival",95 % of control and 108 % of control
same,T/C,"endpoint: median survival time, dose: 0.5 mg/kg/injection, schedule: Q01DX011 (ip), vehicle: water, higher = longer survival",103 % of control and 114 % of control
same,T/C,"endpoint: median survival time, dose: 1.0 mg/kg/injection, schedule: Q01DX009 (ip), vehicle: water, higher = longer survival",111 % of control
O=C(CCBr)N1CCN(C(=O)CCBr)CC1,T/C,"endpoint: mean tumor weight, dose: 50.0 mg/kg/injection, schedule: Q01DX011 (ip), vehicle: steriod suspending solution, higher = larger tumour",73 % of control
same,T/C,"endpoint: mean tumor weight, dose: 100.0 mg/kg/injection, schedule: Q01DX011 (ip), vehicle: steriod suspending solution, higher = larger tumour",73 % of control
same,T/C,"endpoint: mean tumor weight, dose: 200.0 mg/kg/injection, schedule: Q01DX011 (ip), vehicle: steriod suspending solution, higher = larger tumour",37 % of control
COc1cc([C@@H]2c3cc4c(cc3C[C@H]3COC(=O)[C@@H]32)OCO4)cc(OC)c1OC,T/C,[1],68 % of control
same,T/C,"endpoint: mean tumor weight (est.), dose: 10.0 mg/kg/injection, schedule: Q01DX011 (ip), vehicle: saline, higher = larger tumour",54 % of control
same,T/C,"endpoint: mean tumor weight, dose: 6.25 mg/kg/injection, schedule: Q01DX011 (ip), vehicle: saline, higher = larger tumour",100 % of control
same,T/C,"endpoint: mean tumor weight, dose: 12.5 mg/kg/injection, schedule: Q01DX011 (ip), vehicle: saline, higher = larger tumour",70 % of control
same,T/C,[2],100 % of control
same,T/C,[3],87 % of control
NC(C(=O)O)C(F)C(=O)O (centres undefined),T/C,"endpoint: median survival time, dose: 3.12 mg/kg/injection, schedule: Q01DX011 (ip), vehicle: saline, higher = longer survival",104 % of control
same,T/C,[2],98 % of control
same,T/C,[3],103 % of control
CCCCN(CC)C(=S)S[Te](SC(=S)N(CC)CCCC)(SC(=S)N(CC)CCCC)SC(=S)N(CC)CCCC,T/C,"endpoint: mean tumor weight (est.), dose: 100.0 mg/kg/injection, schedule: Q01DX011 (ip), vehicle: saline with Tween-80, higher = larger tumour",72 % of control
same,T/C,"endpoint: mean tumor weight (est.), dose: 200.0 mg/kg/injection, schedule: Q01DX011 (ip), vehicle: saline with Tween-80, higher = larger tumour",54 % of control
same,T/C,"endpoint: mean tumor weight (est.), dose: 400.0 mg/kg/injection, schedule: Q01DX011 (ip), vehicle: saline with Tween-80, higher = larger tumour",29 % of control
same,T/C,"endpoint: median survival time, dose: 100.0 mg/kg/injection, schedule: Q01DX011 (ip), vehicle: saline with Tween-80, higher = longer survival",121 % of control
same,T/C,"endpoint: median survival time, dose: 200.0 mg/kg/injection, schedule: Q01DX011 (ip), vehicle: saline with Tween-80, higher = longer survival",114 % of control
same,T/C,"endpoint: median survival time, dose: 400.0 mg/kg/injection, schedule: Q01DX011 (ip), vehicle: saline with Tween-80, higher = longer survival",121 % of control
C[C@]12CC[C@@H]3c4ccc(O)cc4CC[C@H]3[C@@H]1C[C@@H](O)[C@@H]2O,T/C,"endpoint: mean tumor weight, dose: 3.13 mg/kg/injection, schedule: Q01DX011 (ip), vehicle: saline with Tween-80, higher = larger tumour",62 % of control
same,T/C,"endpoint: median survival time, dose: 0.78 mg/kg/injection, schedule: Q01DX011 (ip), vehicle: saline with Tween-80, higher = longer survival",108 % of control
same,T/C,"endpoint: median survival time, dose: 1.56 mg/kg/injection, schedule: Q01DX011 (ip), vehicle: saline with Tween-80, higher = longer survival",98 % of control
same,T/C,"endpoint: median survival time, dose: 3.12 mg/kg/injection, schedule: Q01DX011 (ip), vehicle: saline with Tween-80, higher = longer survival",112 % of control
same,T/C,"endpoint: median survival time, dose: 6.25 mg/kg/injection, schedule: Q01DX011 (ip), vehicle: saline with Tween-80, higher = longer survival",110 % of control
O=c1[nH]c(=O)n(C2CC(O)C(CO)O2)cc1C(F)(F)F (centres undefined),T/C,"endpoint: median survival time, dose: 2.5 mg/kg/injection, schedule: Q01DX009 (ip), vehicle: saline, higher = longer survival",101 % of control
same,T/C,"endpoint: median survival time, dose: 10.0 mg/kg/injection, schedule: Q01DX009 (ip), vehicle: saline, higher = longer survival",93 % of control
same,T/C,"endpoint: median survival time, dose: 20.0 mg/kg/injection, schedule: Q01DX009 (ip), vehicle: saline, higher = longer survival",94 % of control and 101 % of control
COc1cccc2c1C(=O)c1c(O)c3c(c(O)c1C2=O)C[C@@](O)(C(=O)COC(=O)Cc1cccc2ccccc12)C[C@@H]3OC1CC(N)C(O)C(C)O1 (some centres undefined),T/C,"endpoint: median survival time, dose: 0.25 mg/kg/injection, schedule: Q01DX011 (ip), vehicle: other, higher = longer survival",124 % of control
same,T/C,"endpoint: median survival time, dose: 0.5 mg/kg/injection, schedule: Q01DX011 (ip), vehicle: other, higher = longer survival",108 % of control
same,T/C,"endpoint: median survival time, dose: 1.0 mg/kg/injection, schedule: Q01DX011 (ip), vehicle: other, higher = longer survival",113 % of control
Nc1n[nH]c(N)n1,T/C,"endpoint: mean tumor weight, dose: 125.0 mg/kg/injection, schedule: Q03HX024 (ip), vehicle: water, higher = larger tumour",89 % of control
same,T/C,"endpoint: mean tumor weight, dose: 250.0 mg/kg/injection, schedule: Q03HX024 (ip), vehicle: water, higher = larger tumour",81 % of control
same,T/C,"endpoint: mean tumor weight, dose: 750.0 mg/kg/injection, schedule: Q01DX009 (ip), vehicle: water, higher = larger tumour",72 % of control
same,T/C,"endpoint: mean tumor weight, dose: 750.0 mg/kg/injection, schedule: Q01DX011 (ip), vehicle: water, higher = larger tumour",68 % of control
same,T/C,"endpoint: median survival time, dose: 375.0 mg/kg/injection, schedule: Q01DX009 (ip), vehicle: water, higher = longer survival",116 % of control
same,T/C,"endpoint: median survival time, dose: 375.0 mg/kg/injection, schedule: Q01DX011 (ip), vehicle: water, higher = longer survival",110 % of control
same,T/C,"endpoint: median survival time, dose: 750.0 mg/kg/injection, schedule: Q01DX009 (ip), vehicle: water, higher = longer survival",124 % of control
same,T/C,"endpoint: median survival time, dose: 750.0 mg/kg/injection, schedule: Q01DX011 (ip), vehicle: water, higher = longer survival",104 % of control
same,T/C,"endpoint: median survival time, dose: 1500.0 mg/kg/injection, schedule: Q01DX011 (ip), vehicle: water, higher = longer survival",124 % of control
Nc1nc(=O)n(C2OC(CO)C(O)C2O)cc1F (centres undefined),T/C,"endpoint: median survival time, dose: 4.0 mg/kg/injection, schedule: Q01DX011 (ip), vehicle: saline, higher = longer survival",98 % of control
same,T/C,"endpoint: median survival time, dose: 8.0 mg/kg/injection, schedule: Q01DX011 (ip), vehicle: saline, higher = longer survival",117 % of control
same,T/C,"endpoint: median survival time, dose: 16.0 mg/kg/injection, schedule: Q01DX011 (ip), vehicle: saline, higher = longer survival",98 % of control
same,T/C,"endpoint: median survival time, dose: 32.0 mg/kg/injection, schedule: Q01DX011 (ip), vehicle: saline, higher = longer survival",110 % of control
CCCCCCCCCCCCCCCCCC[N+](C)(C)C (tested in a mixture with another compound),T/C,"endpoint: mean tumor weight, dose: 1.0 mg/kg/injection, schedule: Q01DX011 (ip), vehicle: saline, higher = larger tumour",59 % of control
same,T/C,"endpoint: mean tumor weight, dose: 2.0 mg/kg/injection, schedule: Q01DX011 (ip), vehicle: saline, higher = larger tumour",64 % of control
same,T/C,"endpoint: median survival time, dose: 2.0 mg/kg/injection, schedule: Q01DX011 (ip), vehicle: saline, higher = longer survival",88 % of control
